Assay results from US12594268B2, “Methods of treating Fabry disease in patients having a mutation in the GLA gene” (Amicus Therapeutics, Inc., priority 2018, dated 2026).
Numbering of substitutions follows the chain as printed.

Columns and labels:
Assay type in all cases: cell-based
[1] = target: T1, α-Gal A mutant form S238G (Homo sapiens, UniProt P06280, S238G); assay: α-Gal A activity in lysates of transfected HEK-293 cells, S238G
T1 construct: expressed in transfected cells; host or cells: HEK-293
T1 sequence (P06280 32-429 S238G): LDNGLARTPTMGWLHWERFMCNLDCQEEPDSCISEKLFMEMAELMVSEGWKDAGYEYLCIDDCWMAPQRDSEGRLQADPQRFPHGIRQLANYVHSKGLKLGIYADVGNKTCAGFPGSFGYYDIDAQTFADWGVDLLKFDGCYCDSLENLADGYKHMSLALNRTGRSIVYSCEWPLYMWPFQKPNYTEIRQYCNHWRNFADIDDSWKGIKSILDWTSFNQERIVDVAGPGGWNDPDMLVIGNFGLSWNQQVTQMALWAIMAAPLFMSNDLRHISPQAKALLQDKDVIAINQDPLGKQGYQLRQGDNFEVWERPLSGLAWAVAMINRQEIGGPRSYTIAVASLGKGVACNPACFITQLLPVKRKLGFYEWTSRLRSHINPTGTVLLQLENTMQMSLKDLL
Description: (§1) Baseline and 10 μM migalastat α-Gal A activity: Differences in the α-Gal A activity between lysates incubated in the absence and presence of 10 μM migalastat were determined using a one-tailed, Mann Whitney U test; an increase at 10 μM migalastat with a p<0.05 was considered significant.
(§2) 10 μM migalastat α-Gal A activity (% WT)=(α-Gal A activity in mutant transfected cell lysates incubated with 10 μM migalastat÷α-Gal A activity in wild-type transfected cell lysates without migalastat)*100.
(§3) Absolute increase (% WT)=is the 10 μM migalastat α-Gal A activity (% WT) minus the baseline α-Gal A activity (% WT).
(§4) Relative increase is the 10 μM migalastat α-Gal A activity in mutant transfected cell lysates÷baseline α-Gal A activity in mutant transfected cell lysates incubated without migalastat.

[2] = target: T2, α-Gal A mutant form A156S (Homo sapiens, UniProt P06280, A156S); assay: α-Gal A activity in lysates of transfected HEK-293 cells, A156S
T2 construct: expressed in transfected cells; host or cells: HEK-293
T2 sequence (P06280 32-429 A156S): T1 sequence (P06280 32-429 S238G) with A125S, G207S
Description: as §1, §2, §3, §4

[3] = target: T3, α-Gal A mutant form L189F (Homo sapiens, UniProt P06280, L189F); assay: α-Gal A activity in lysates of transfected HEK-293 cells, L189F
T3 construct: expressed in transfected cells; host or cells: HEK-293
T3 sequence (P06280 32-429 L189F): T1 sequence (P06280 32-429 S238G) with L158F, G207S
Description: as §1, §2, §3, §4

[4] = target: T4, α-Gal A mutant form Q107R (Homo sapiens, UniProt P06280, Q107R); assay: α-Gal A activity in lysates of transfected HEK-293 cells, Q107R
T4 construct: expressed in transfected cells; host or cells: HEK-293
T4 sequence (P06280 32-429 Q107R): T1 sequence (P06280 32-429 S238G) with Q76R, G207S
Description: as §1, §2, §3, §4

[5] = target: T5, α-Gal A mutant form W204G (Homo sapiens, UniProt P06280, W204G); assay: α-Gal A activity in lysates of transfected HEK-293 cells, W204G
T5 construct: expressed in transfected cells; host or cells: HEK-293
T5 sequence (P06280 32-429 W204G): T1 sequence (P06280 32-429 S238G) with W173G, G207S
Description: as §1, §2, §3, §4

[6] = 10 μM migalastat minus baseline
[7] = 10 μM migalastat ÷ baseline activity
[8] = HEK-293 lysates, 10 μM migalastat, 5 days, mean ± SEM

Absolute increase (% WT) [1, 6]: 67.7 % WT | Relative increase [1, 7]: 4.26 | 10 μM migalastat α-Gal A activity [1, 8]: 25106 ± 1611 nmol/mg/h | 10 μM migalastat α-Gal A activity (% WT) [1, 8]: 86.4 ± 7.2 % WT | Absolute increase (% WT) [2, 6]: 18.4 % WT | Relative increase [2, 7]: 1.29 | 10 μM migalastat α-Gal A activity [2, 8]: 31597 ± 2293 nmol/mg/h | 10 μM migalastat α-Gal A activity (% WT) [2, 8]: 85.1 ± 53 % WT | Absolute increase (% WT) [3, 6]: 15.3 % WT | Relative increase [3, 7]: 1.22 | 10 μM migalastat α-Gal A activity [3, 8]: 27388 ± 1605 nmol/mg/h | 10 μM migalastat α-Gal A activity (% WT) [3, 8]: 84.6 ± 3.8 % WT | Absolute increase (% WT) [4, 6]: 21.5 % WT | Relative increase [4, 7]: 1.27 | 10 μM migalastat α-Gal A activity [4, 8]: 31193 ± 2248 nmol/mg/h | 10 μM migalastat α-Gal A activity (% WT) [4, 8]: 109.8 ± 8.4 % WT | Absolute increase (% WT) ([5]; 10 μM migalastat minus baseline (baseline BLD)): 6.5 % WT | 10 nM migalastat α-Gal A activity ([5]; HEK-293 lysates, 10 nM migalastat as printed, 5 days, mean ± SEM, baseline BLD): 1695 ± 198 nmol/mg/h | 10 μM migalastat α-Gal A activity (% WT) [5, 8]: 6.5 ± 0.7 % WT
SMILES: OC[C@H]1NC[C@H](O)[C@@H](O)[C@H]1O [migalastat, (2R,3S,4R,5S)-2-(hydroxymethyl) piperdine-3,4,5-triol]
